Legend:
[1] = tested on: Russet Burbank potato tubers; experiment: Sprout-free interval after CIPC and trans-2-nonenal, alone or in sequence; assay type: in vivo; details: CIPC 20 mg/kg; T2N 0.75 mmol/kg; applied at 151 DAH; tubers stored at 9° C.
Procedure: FIGS. 2A and B. Treatment with combination of T2N and CIPC. A, sprout growth in “Russet Burbank” tubers treated as indicated with CIPC, trans-2-nonenal, or trans-2-nonenal and CIPC in sequence; fresh weight of sprouts (g/tuber) at the indicated time points. CIPC, 20 mg/kg; T2N, 0.75 mmol/kg; B, photo of tubers.
Following the emergence of Russet Burbank potato tubers from dormancy, CIPC and trans-2-nonenal were applied either alone or sequentially as indicated in FIG. 2A. All treatments were applied at 151 days after harvest (DAH). Sprout control was considered to end when one third of the tubers in the sample produced a sprout mass of greater than 50 mg/tuber or when the mean of the total sample exceeded 1 g/tuber. When both CIPC and trans-2-nonenal were used, the sprout-free interval of the tubers stored at 9° C. […] In this study, the application of CIPC was unconventional in that it occurred when tubers were beginning to sprout, as opposed to the window between wound healing and sprouting. CIPC provided additional sprout control on tubers whose actively growing sprouts were initially terminated by trans-2-nonenal, i.e. when used in combination with trans-2-nonenal. Trans-2-nonenal thus expands the window of opportunity for application of CIPC and this invention can therefore be useful to reduce the application rate and residues of CIPC.

[2] = tested on: Russet Burbank tubers; experiment: Sprout fresh weight after 24 h chamber treatment with 3N2 and 2-nonanone mixtures; assay type: in vivo, potato; details: treated 24 h, 21 days at 22° C.
Procedure: FIG. 1. Effects of 3-nonen-2-one (3N2) in various combinations with 2-nonanone on sprouting of Russet Burbank tubers. The compounds were applied as described in Example 1. Tubers were treated for 24 h, removed from treatment chambers, and placed at 22° C. to sprout for 3 weeks. Sprout fresh weight is expressed as a percentage of control (non-treated), which were 100% sprouted.
The objective of this study was to determine the efficacy of mixtures of 3N2 and its metabolite, 2-nonanone, on sprout inhibition. Potato tubers were treated for 24 h in a closed chamber. The chemicals were volatilized from filter paper inside the chamber. Treatment was with 0 to 0.75 mmol/kg of 3N2 combined factorially with 0 to 0.75 mmol/kg of 2-nonanone. The treated tubers were placed at 22° C. and sprout fresh weights were measured 21 days after treatment. Sprout growth from tubers treated with 0.5 and 0.75 mmol/kg 2-nonanone averaged 58% of non-treated tubers, compared with 9% for […] applied alone (FIG. 1).

[3] = tested on: 'Ranger Russet' tubers; experiment: Days to average sprout length of 10 mm, 2-decanone followed by CIPC; assay type: in vivo, potato
Procedure: (§1) This study, as described, used 3-decen-2-one (3D2). The study was duplicated as described with 2-decanone in place of 3D2. Tubers were stored at 9° C. until they emerged from dormancy (when 75% of the sample tubers are peeping, and the longest sprouts are no longer than 4 mm). At this time, 3-decen-2-one was applied at 0.75, 0.50, or 0.25 mmol/kg to ‘burn off’ growing sprouts. Each of these treatments was followed by applications of 1, 0.73, 0.47 or 0.20% a.i. of CIPC EC. The label rate of CIPC EC is 1% a.i. and results in a 10 mg/kg fresh wt application when applied as directed. Sprout measurements were obtained every two weeks. The length of the longest sprout on each tuber was recorded. The average length of the longest sprout was plotted over time for each treatment combination. The days to 10 mm were estimated from the second linear regression line of each element. Positive control treatments included the three rates of 3D2 alone and four post-sprouting concentrations of CIPC alone. The standard control treatment consisted of non-treated tubers.

[4] = tested on: 'Ranger Russet' tubers; experiment: Days to average sprout length of 10 mm, 3-decen-2-one followed by CIPC; assay type: in vivo, potato
Procedure: The study used CIPC to extend the sprout-free period following an application of 3-decen-2-one or 2-decanone after sprouting occurs. Protocol.
as §1

[5] = 116 mg kg-1 rate, no subsequent treatment with CIPC

CCCCCC/C=C/C=O [trans-2-nonenal]
Sprout-free interval [1]: 155 days

CCCCCC=CC(C)=O [3N2, 3-nonen-2-one]
Sprout growth (fresh weight) as percentage of non-treated tubers ([2]; 0.75% 3N2 applied alone): 9%

CCCCCCCC(C)=O [2-nonanone]
Sprout growth (fresh weight) as percentage of non-treated tubers ([2]; 0.5 and 0.75 mmol/kg 2-nonanone, averaged): 58%

CCCCCCCCC(C)=O [2-decanone]
Control before sprouting re-occurred ([3]; 0.25 mmol/kg rate): approximately 1 month | Days of control following application [3, 5]: 50 days | Days to 10 mm Actual ([3]; 2-decanone 39 mg kg-1 fresh wt alone (CIPC 0)): 34 days | Days to 10 mm Actual ([3]; 2-decanone 77 mg kg-1 fresh wt alone (CIPC 0)): 42 days | Days to 10 mm Actual ([3]; 2-decanone 116 mg kg-1 fresh wt alone (CIPC 0)): 49 days

CCCCCCC=CC(C)=O [3D2, 3-decen-2-one]
Control before sprouting re-occurred ([4]; 0.25 mmol/kg rate): approximately 1 month | Days of control following application [4, 5]: 58 days | Days to 10 mm Actual ([4]; 3D2 39 mg kg-1 fresh wt alone (CIPC 0)): 38 days | Days to 10 mm Actual ([4]; 3D2 77 mg kg-1 fresh wt alone (CIPC 0)): 40 days | Days to 10 mm Actual ([4]; 3D2 116 mg kg-1 fresh wt alone (CIPC 0)): 57 days

CC(C)OC(=O)Nc1cccc(Cl)c1 [CIPC, chlorpropham, reference compound]
Sprout-free interval [1]: 124 days | Days to 10 mm Actual ([4]; CIPC 2.0 mg kg-1 fresh wt alone (3D2 0), Table 1 study): 51 days | Days to 10 mm Actual ([4]; CIPC 4.7 mg kg-1 fresh wt alone (3D2 0), Table 1 study): 80 days | Days to 10 mm Actual ([4]; CIPC 7.3 mg kg-1 fresh wt alone (3D2 0), Table 1 study): 99 days | Days to 10 mm Actual ([4]; CIPC 10 mg kg-1 fresh wt alone (3D2 0), Table 1 study): 95 days | Days to 10 mm Actual ([3]; CIPC 2.0 mg kg-1 fresh wt alone (2-decanone 0), Table 2 study): 85 days | Days to 10 mm Actual ([3]; CIPC 4.7 mg kg-1 fresh wt alone (2-decanone 0), Table 2 study): 113 days | Days to 10 mm Actual ([3]; CIPC 7.3 mg kg-1 fresh wt alone (2-decanone 0), Table 2 study): 110 days | Days to 10 mm Actual ([3]; CIPC 10 mg kg-1 fresh wt alone (2-decanone 0), Table 2 study): 112 days

Reference: patent US8999419B2, “Enhancement of potato tuber sprouting inhibitors using various combinations of agents” (Washington State University, priority 2010, dated 2015)
